Laboratory results as given in publication PMC7764601 (Molecules, 2020).
Values joined by “and” are separate entries in the source; they are usually repeats but may differ in a detail not shown here. Equal values may be shown once. Read-outs that look alike come from different tables or passages of the source. Marks after values point to notes of the source that are not given here.

Assays:
[1] = system: mice; conditions: compounds obtained previously (series 1 and 2); cited from earlier work
[2] = target: T1, µ receptor of the rat cerebral cortex (Rattus norvegicus, UniProt P33535); assay: Displacement of [3H-DHM] from µ receptor binding sites of rat cerebral cortex; conditions: read-out: Dihydromorphine [3H-DHM] Ki
T1 construct: from tissue; host or cells: rat cerebral cortex

[3] = system: mice; parameters: method as in PMID 11234340, PMID 12484538, PMID 15652370; conditions: cited from earlier work; for % Inh. of locomotor activity: series 1
[4] = system: mice; parameters: method as in PMID 11234340, PMID 12484538, PMID 15652370; conditions: series 1, cited from earlier work
[5] = system: mice; assay: “Writhing” test in mice (phenylbenzoquinone); type: in vivo
Experimental: (§1) The experiments were carried out on male albino Swiss mice (body weight 18–26 g). All of the animals were housed at constant humidity (60%) and temperature (25 °C) and kept on a 12 h light/dark cycle. Animals were fed a standard pellet diet with free access to tap water. All procedures were conducted according to Animal Care and Use Committee guidelines, and approved by the Ethical Committee of Jagiellonian University, Kraków.
(§2) Control and experimental groups consisted of 6–8 animals each. The investigated compounds were administered intraperitoneally as a suspension in 0.5% methylcellulose in a constant volume of 10 mL/kg.
(§3) The statistical significance was calculated using a Student’s t-test. The ED50 values and their confidence limits were calculated according to the method of Litchfield and Wilcoxon.
(§4) Pain reactivity was measured in two tests: “hot plate” test (according to the method of Eddy and Leimbach) and “writhing” test in mice (according to Hendershot and Forsaith).
Then, after 25 min, the irritant (phenylbenzoquinone, 0.02% solution, ethanol-water, 5:95) was also administered intraperitoneally in a constant volume of 0.25 mL. Five min after the application of the irritant,a 10 min long period of observation started, in which the number of writhing episodes was counted.
The analgesic effect of individual doses was expressed in percent:(1) % Analgesic effect=100−∑ of writing incidents in experimental group/∑ of writhing incidents in control group×100

[6] = system: mice; assay: Thiopental anesthesia (thiopental-induced sleep); type: in vivo; conditions: for Prolongation (%) of thiopental anesthesia / Duration of Anesthesia ± SEM: i.p.; for Duration of Anesthesia ± SEM: thiopental
From the text: The pilot biological studies for imides 9 and 11 were supplemented with the determination of the effect of the intraperitoneal administration of the test compounds on the duration of thiopental-induced sleep. The mechanism and the degree of crossing the blood–brain barrier has not been precisely defined. The observed sedative effects may indicate good penetration of compounds into the central nervous system, which, however, has not been confirmed.
as §2

[7] = system: mice; assay: “Hot plate” test in mice; type: in vivo; conditions: hot plate, mice
Experimental: as §1, §2, §3, §4
Animals were placed individually on the metal plate, heated to 55 ± 1 °C. The latency time (s) to the pain reaction (licking of the hind paws or jumping) was recorded by a stop-watch. A cutoff time of 45 s was used to prevent tissue damage.

[8] = in vivo; type: in vivo; conditions: male, albino Swiss, mouse, in vivo, ip; mice, intraperitoneal, mortality after 24 h; confidence limits in parentheses
Experimental: as §1, §2

[9] = system: mice; assay: in vivo; type: in vivo; conditions: ED50 of the writhing test (Table 3) relative to LD50 i.p.
Experimental: as §1, §2

[10] = system: mice; assay: Spontaneous locomotor activity in mice (photoresistor actometers); type: in vivo; conditions: for Number of impulses ± SEM (30min): i.p.
Experimental: as §1, §2
Spontaneous locomotor activity in mice was measured in circular photoresistoractometers (32 cm in diameter). […] Thirty minutes after the injection of the investigated compounds, mice were placed in the actometers for 30 min. Each crossing of the light beam was recorded automatically. The amount of impulses was noted after 30 min.

T1 sequence (P33535 whole entry): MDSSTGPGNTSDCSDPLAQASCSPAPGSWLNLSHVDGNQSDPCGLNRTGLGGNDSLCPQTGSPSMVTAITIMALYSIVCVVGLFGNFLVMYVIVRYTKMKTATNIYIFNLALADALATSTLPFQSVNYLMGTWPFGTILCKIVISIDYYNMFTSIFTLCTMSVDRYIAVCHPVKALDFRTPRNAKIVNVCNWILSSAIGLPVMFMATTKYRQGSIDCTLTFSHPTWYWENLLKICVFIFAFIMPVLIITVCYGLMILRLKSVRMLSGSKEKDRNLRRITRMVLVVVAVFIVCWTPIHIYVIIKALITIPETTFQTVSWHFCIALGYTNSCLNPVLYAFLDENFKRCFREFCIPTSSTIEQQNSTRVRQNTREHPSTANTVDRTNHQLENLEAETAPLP

## COc1nc(C)cc2c1C(=O)N(CN1CCc3ccccc3C1)C2=O [Compound 1M]
[1]
  ED50, writhing test: 12.7 mg/kg
[2]
  Ki: 13.8 ± 12.2 µM
[3]; dose 25 mg/kg
  % Inh. of locomotor activity: 47.25%
[3]; dose 50 mg/kg
  % Inh. of locomotor activity: 59.21%
[3]; imides described previously (series 1)
  ED50, influence on the locomotor activity: 29.5 mg/kg
[4]; dose 25 mg/kg
  Thiopental Anesthesia % Prolong.: 146.6%
[4]; dose 50 mg/kg
  Thiopental Anesthesia % Prolong.: 195.1%

## COc1nc(C)cc2c1C(=O)N(CCN1CCN(c3ccccc3)CC1)C2=O [Compound 9]
[5]; Mus musculus, ip, confidence limits in parentheses, read-out: ED50 (mg/kg) ± SEM, writhing test
  ED50: 3.25 mg/kg
[5]; i.p., confidence limits in parentheses
  ED50 (mg/kg) ± SEM, writhing test: 3.67 mg/kg
[5]; i.p., dose 4.68 mg/kg
  Mean no. of writhing ± SEM: 22.0 ± 4.6
[5]; i.p., dose 9.375 mg/kg
  Mean no. of writhing ± SEM: 9.8 ± 1.8
[5]; i.p., dose 18.75 mg/kg
  Mean no. of writhing ± SEM: 5.0 ± 2.0
[5]; i.p., dose 37.5 mg/kg
  Mean no. of writhing ± SEM: 1.2 ± 0.7
[6]; dose 9.375 mg/kg
  Prolongation (%) of thiopental anesthesia: 34.8%
  Duration of Anesthesia ± SEM: 69.4 ± 12 min
[6]; dose 18.75 mg/kg
  Prolongation (%) of thiopental anesthesia: 96.5 * % and 96.5%
  Duration of Anesthesia ± SEM: 101.2 ± 28.4 min
[6]; dose 37.5 mg/kg
  Prolongation (%) of thiopental anesthesia: 157.1 ** % and 157.1%
  Duration of Anesthesia ± SEM: 132.4 ± 27.8 min
[6]; mouse, in vivo
  effect on duration of thiopental anesthesia (in words): extended the duration of thiopental anesthesia
[7]; Mus musculus, ip, 0.5 h, dose 75 mg/kg, read-out: Prolonged Time (%)
  change in vivo at 75 mg/kg: 55%
[7]; Mus musculus, ip, 0.5 h, dose 150 mg/kg, read-out: Prolonged Time (%)
  change in vivo at 150 mg/kg: 102%
[7]; Mus musculus, ip, 0.5 h, dose 300 mg/kg, read-out: Prolonged Time (%)
  change in vivo at 300 mg/kg: 105%
[7]; dose 75 mg/kg
  Time of Reaction to Pain Stimulus (s) ± SEM: 30.3 ± 2.7 s
[7]; dose 150 mg/kg
  Time of Reaction to Pain Stimulus (s) ± SEM: 39.2 ± 5 s
[7]; dose 300 mg/kg
  Time of Reaction to Pain Stimulus (s) ± SEM: 40.0 ± 4.4 s
[8]
  LD50 at 24 h: 1500 mg/kg
[9]
  analgesic ED50 as fraction of LD50: ≈ 1/408
[10]; Mus musculus, ip, confidence limits in parentheses, read-out: ED50 (mg/kg) ± SEM, spontaneous locomotor activity
  ED50: 18.8 mg/kg
[10]; Mus musculus, ip, dose 4.68 mg/kg, read-out: Degree of motor inhibition (%)
  inhibition at 4.68 mg/kg: 22.6%
[10]; Mus musculus, ip, dose 9.37 mg/kg (Table 9), read-out: % Inh. of locomotor activity
  inhibition at 9.37 mg/kg: 42.8%
[10]; Mus musculus, ip, dose 18.75 mg/kg, read-out: Degree of motor inhibition (%)
  inhibition at 18.75 mg/kg: 45.9%
[10]; Mus musculus, ip, dose 37.5 mg/kg, read-out: Degree of motor inhibition (%)
  inhibition at 37.5 mg/kg: 67.2%
[10]; dose 18.75 mg/kg
  Number of impulses ± SEM (30min): 244 ± 45
[10]; dose 37.5 mg/kg
  Number of impulses ± SEM (30min): 148 ± 32
[10]; dose 93.75 mg/kg (as printed in Table S2)
  Number of impulses ± SEM (30min): 258 ± 47.4
